Source: the supplement of paper PMC10307832

Tests used:
Test in all cases: relative viability (nuclei count vs DMSO), 5 days (fraction); higher = more cells survive
[1] = compound: C1CC(C2=C(C1)C3=C(N2)C=CC(=C3)Cl)C(=O)N [Selisistat] + CS(=O)(=O)CCNCc1ccc(-c2ccc3ncnc(Nc4ccc(OCc5cccc(F)c5)c(Cl)c4)c3c2)o1 [Lapatinib] (partner 2 µM)
Outline: (§1)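 Lung cancer cell lines in 1536-well plates got either a single drug or a fixed anchor-drug dose together with five library-drug doses (not always all listed) in √10 steps, by pin tool, on the day after seeding. Nuclei were counted after 5 days, and relative viability is the treated-to-vehicle ratio of nuclei counts. Values are medians of duplicate plates.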

[2] = compound: c1ccc2c(CCNc3ccc(Nc4ccncc4)cc3)c[nH]c2c1 [Serdemetan] + CC(=O)c1c(C)c2cnc(Nc3ccc(N4CCNCC4)cn3)nc2n(C2CCCC2)c1=O [Palbociclib] (partner 0.5 µM)
Outline: as §1

[3] = compound: c1ccc2c(CCNc3ccc(Nc4ccncc4)cc3)c[nH]c2c1 [Serdemetan] + CCNC(=O)c1noc(-c2cc(C(C)C)c(O)cc2O)c1-c1ccc(CN2CCOCC2)cc1 [Luminespib] (partner 0.01 µM)
Outline: as §1

[4] = compound: c1ccc2c(CCNc3ccc(Nc4ccncc4)cc3)c[nH]c2c1 [Serdemetan] + N=C(N)NC(=N)NCCc1ccccc1 [Phenformin] (partner 250 µM)
Outline: as §1

Cell Line | relative viability ([1]; first compound 0.4 µM) | relative viability ([1]; first compound 1.265 µM) | relative viability ([1]; first compound 4 µM) | relative viability ([1]; first compound 12.65 µM) | relative viability ([1]; first compound 40 µM) | relative viability ([2]; first compound 0.04 µM) | relative viability ([2]; first compound 0.1265 µM) | relative viability ([2]; first compound 0.4 µM) | relative viability ([2]; first compound 1.265 µM) | relative viability ([2]; first compound 4 µM) | relative viability ([3]; first compound 0.04 µM) | relative viability ([3]; first compound 0.1265 µM) | relative viability ([3]; first compound 0.4 µM) | relative viability ([3]; first compound 1.265 µM) | relative viability ([3]; first compound 4 µM) | relative viability ([4]; first compound 0.04 µM) | relative viability ([4]; first compound 0.1265 µM) | relative viability ([4]; first compound 0.4 µM) | relative viability ([4]; first compound 1.265 µM) | relative viability ([4]; first compound 4 µM)
HARA | 0.726 | 0.691 | 0.71 | 0.778 | 0.904 | 0.269 | 0.264 | 0.228 | 0.236 | 0.223 | 0.767 | 0.604 | 0.606 | 0.303 | 0.199 | 0.466 | 0.457 | 0.499 | 0.257 | 0.304
NCI-H23 | 1.16 | 1.06 | – | 1.24 | 1 | 0.474 | 0.472 | 0.461 | – | 0.437 | 0.219 | 0.223 | 0.214 | 0.211 | 0.196 | 0.855 | 0.752 | 0.887 | 0.56 | 0.746
LCLC-97TM1 | 0.779 | 1.12 | 0.86 | 0.928 | 1.32 | 0.228 | 0.224 | 0.22 | 0.134 | 0.16 | 0.739 | 0.738 | 0.653 | – | 0.596 | 0.455 | 0.382 | 0.463 | – | 0.41
EPLC-272H | 0.761 | 0.996 | – | 0.955 | 0.915 | 0.337 | 0.329 | 0.33 | 0.256 | 0.3 | 0.307 | 0.401 | 0.373 | 0.252 | 0.602 | 0.344 | 0.295 | 0.301 | 0.278 | 0.294
NCI-H1915 | 0.967 | 0.969 | 0.918 | 0.897 | 1.02 | 0.483 | 0.52 | 0.482 | 0.434 | 0.39 | 0.74 | 0.73 | 0.672 | 0.514 | 0.532 | 0.38 | 0.358 | 0.359 | 0.318 | 0.334
NCI-H2405 | 1.01 | – | – | 1.03 | 1.09 | 0.479 | 0.515 | 0.549 | 0.466 | 0.52 | 0.716 | 0.664 | 0.64 | 0.573 | 0.596 | 0.317 | 0.406 | 0.366 | 0.344 | 0.381
NCI-H322M | 0.595 | 0.562 | – | 0.623 | 0.561 | 0.491 | 0.488 | 0.474 | 0.327 | 0.463 | 0.807 | 0.845 | 0.772 | 0.861 | 0.678 | 0.667 | 0.788 | 0.774 | 0.718 | 0.706
NCI-H2170 | 0.265 | 0.272 | 0.268 | 0.28 | 0.253 | 0.362 | 0.428 | 0.411 | 0.301 | 0.382 | 0.643 | 0.596 | 0.807 | 0.459 | 0.56 | 0.374 | 0.354 | 0.383 | 0.35 | 0.336
NCI-H1395 | 1.09 | 0.973 | 1 | 0.91 | 0.883 | 0.605 | 0.643 | 0.626 | 0.555 | 0.436 | 0.651 | 0.671 | 0.673 | 0.6 | 0.459 | 0.448 | 0.448 | 0.471 | 0.388 | 0.332
NCI-H358 | 0.492 | 0.443 | – | 0.397 | 0.373 | 0.134 | 0.135 | 0.132 | 0.122 | 0.117 | 0.63 | 0.351 | 0.254 | 0.465 | 0.207 | 0.302 | 0.324 | 0.273 | 0.286 | 0.308
NCI-H838 | 1.09 | 0.965 | 0.627 | 0.966 | 0.958 | 0.212 | 0.221 | 0.243 | 0.232 | 0.23 | 0.266 | 0.319 | 0.383 | 0.2 | 0.328 | 0.564 | 0.551 | 0.544 | 0.427 | 0.641
CAL-12T | 0.628 | 0.704 | – | 0.627 | 0.646 | 0.467 | 0.422 | 0.35 | 0.424 | 0.539 | 0.227 | 0.28 | 0.141 | 0.266 | 0.486 | 0.508 | 0.632 | 0.502 | 0.562 | 0.561
